The text below walks through data of patent US20260166039A1 (SCHRÖDINGER, INC., priority 2022, published 2026).

One assay deals with T1, Wee1 kinase domain (Homo sapiens, UniProt P30291).
T1 construct: Wee1 kinase domain was purchased from Carna (catalog #05-177); purchased Carna 05-177
Briefly: Wee1 Kinase Biochemical Assay (ADP-Glo). As to conditions: class symbols; 1 nM Wee1 enzyme, 15 uM ATP, 4 hours at 25° C. The method, boiled down: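 Kinase domain (1 nM) incubated 4 h at 25 °C with 15 uM ATP and 2 ng/mL Poly(Lys,Tyr 4:1) in 40 mM Tris-HCl, 20 mM MgCl2, 0.1 mg/mL BSA, 2 mM DTT. ADP formation read by ADP-Glo luminescence; percent inhibition normalized to DMSO and saturating reference-inhibitor controls.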
On the technique in general: ADP-Glo turns the ADP formed in a reaction into a luminescent signal.

The subject of assay [1] is phosphorylation of Cdc2 Y15 (Wee1 substrate) in A427 cells. Description: Phosphorylated Cdc2 MSD Electrochemiluminescence Assay. It counts as cell-based. As to conditions: Homo sapiens, A-427, class symbols, read-out: A427 pCDC2 MSD IC50. Put shortly: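 A427 cells (RPMI 1640, 10% FBS) treated 20 h after plating with 3-fold serial compound dilutions, in duplicate, 37 °C, 5% CO2; total incubation 6 h. Lysate Cdc2 pY15 read by MSD electrochemiluminescence sandwich immunoassay; % remaining signal normalised to DMSO (high) and reference Wee1 inhibitor (low) controls.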

SMILES strings stand for the structures. Where only a bound is given, the exact number is not on record here.

T1 sequence (P30291 299-569 limits assumed): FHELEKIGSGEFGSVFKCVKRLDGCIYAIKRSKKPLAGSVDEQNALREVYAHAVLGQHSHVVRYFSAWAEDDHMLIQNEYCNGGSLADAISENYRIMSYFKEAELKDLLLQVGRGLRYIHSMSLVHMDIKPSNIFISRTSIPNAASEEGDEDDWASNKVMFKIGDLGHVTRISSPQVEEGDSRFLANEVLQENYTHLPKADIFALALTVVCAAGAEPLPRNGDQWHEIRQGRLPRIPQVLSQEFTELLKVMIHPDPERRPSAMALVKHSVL

In general, IC50 refers to the concentration that gives 50% inhibition. `Cn1ncc(Nc2ncc3c(n2)N(c2cccc(N=S(C)(C)=O)n2)[C@@H]2CC(C)(C)OC[C@]32C)c1F` (single isomer, unassigned) [Example 490]: the IC50 at Wee1 kinase domain is below 10 nM; in assay [1], 100 to 1000 nM.
Take `Cc1ccc(Nc2ncc3c(n2)N(c2cccc(N=S(C)(C)=O)n2)[C@@H]2CC(C)(C)OC[C@]32C)cn1` (single isomer, unassigned) [Example 491]: the IC50 at Wee1 kinase domain was below 10 nM; in assay [1], 100 to 1000 nM.
The like results for `Cc1cncc(Nc2ncc3c(n2)N(c2cccc(N=S(C)(C)=O)n2)[C@@H]2CC(C)(C)OC[C@]32C)c1` (single isomer, unassigned) [Example 492] were, in that order, below 10 nM and below 100 nM.
On to `CC1(C)C[C@H]2N(c3cccc(N=S(C)(C)=O)n3)c3nc(Nc4ccc(N5CCOCC5)nc4)ncc3[C@@]2(C)CO1` (single isomer, unassigned) [Example 493], for which the concentration for half-maximal inhibition (IC50) at Wee1 kinase domain was below 10 nM; in assay [1], 100 to 1000 nM.
`CC1(C)C[C@H]2N(c3cccc(N=S(C)(C)=O)n3)c3nc(Nc4ccc(N5CC6(CNC6)C5)cc4)ncc3[C@@]2(C)CO1` (single isomer, unassigned) [Example 494]: the values for the half-inhibitory concentration (IC50) (at Wee1 kinase domain; in assay [1]) were below 10 nM and 100 to 1000 nM, respectively.
`Cn1cc(Nc2ncc3c(n2)N(c2cccc(N=S(C)(C)=O)n2)[C@@H]2CC(C)(C)OC[C@]32C)ccc1=O` (single isomer, unassigned) [Example 495]: the 50% inhibitory concentration (IC50) is below 10 nM against Wee1 kinase domain and 1000 to 10000 nM in assay [1].
In the same order, the values of `CC1(C)CC2N(c3cccc(N=S(C)(C)=O)n3)c3nc(Nc4ccc(N5CCOCC5)cc4)ncc3C2(C)CO1` (single isomer, unassigned) [Example 496] are below 10 nM and 100 to 1000 nM.
Regarding `CC1(C)C[C@H]2N(c3cccc(N=S(C)(C)=O)n3)c3nc(Nc4ccc(N5C[C@@H]6C[C@H]5CO6)cc4)ncc3[C@@]2(C)CO1` (single isomer, unassigned) [Example 497], the IC50 at Wee1 kinase domain was below 10 nM; in assay [1] it was 100 to 1000 nM.
Consider `CC1(C)C[C@H]2N(c3cccc(N=S(C)(C)=O)n3)c3nc(Nc4ccc(N5C[C@H]6C[C@@H]5CO6)cc4)ncc3[C@@]2(C)CO1` (single isomer, unassigned) [Example 498], for which the concentration for half-maximal inhibition (IC50) was below 10 nM against Wee1 kinase domain and 100 to 1000 nM in assay [1].
For `C[C@@H]1CN(c2ccc(Nc3ncc4c(n3)N(c3cccc(N=S(C)(C)=O)n3)[C@@H]3CC(C)(C)OC[C@]43C)cc2)CCN1C` (single isomer, unassigned) [Example 499], the IC50 against Wee1 kinase domain was below 10 nM; in assay [1], below 100 nM.
In the same order, the values of `C[C@H]1CN(c2ccc(Nc3ncc4c(n3)N(c3cccc(N=S(C)(C)=O)n3)[C@@H]3CC(C)(C)OC[C@]43C)cc2)CCN1C` (single isomer, unassigned) [Example 500] are below 10 nM and below 100 nM.
In the same order, the values of `CN1CCCN(c2ccc(Nc3ncc4c(n3)N(c3cccc(N=S(C)(C)=O)n3)[C@@H]3CC(C)(C)OC[C@]43C)cc2)CC1` (single isomer, unassigned) [Example 501] are below 10 nM and below 100 nM.
In the same order, the values of `CN1CC[C@@H]2CN(c3ccc(Nc4ncc5c(n4)N(c4cccc(N=S(C)(C)=O)n4)[C@@H]4CC(C)(C)OC[C@]54C)cc3)C[C@@H]21` (single isomer, unassigned) [Example 502] are below 10 nM and below 100 nM.
Take `CN1CC[C@H]2CN(c3ccc(Nc4ncc5c(n4)N(c4cccc(N=S(C)(C)=O)n4)[C@@H]4CC(C)(C)OC[C@]54C)cc3)C[C@H]21` (single isomer, unassigned) [Example 503]: the half-maximal inhibitory concentration (IC50) at Wee1 kinase domain is below 10 nM; in assay [1], below 100 nM.
In the same order, the values of `CC1(C)C[C@H]2N(c3cccc(N=S(C)(C)=O)n3)c3nc(Nc4ccc5nccn5c4)ncc3[C@@]2(C)CO1` (single isomer, unassigned) [Example 504] are below 10 nM and 100 to 1000 nM.
In the same order, the values of `CC1(C)C[C@H]2N(c3cccc(N=S(C)(C)=O)n3)c3nc(Nc4ccc(N5CCN6CCC[C@@H]6C5)cc4)ncc3[C@@]2(C)CO1` (single isomer, unassigned) [Example 505] are below 10 nM and 100 to 1000 nM.
The like results for `CN1[C@@H]2C[C@H]1CN(c1ccc(Nc3ncc4c(n3)N(c3cccc(N=S(C)(C)=O)n3)[C@@H]3CC(C)(C)OC[C@]43C)cc1)C2` (single isomer, unassigned) [Example 506] were, in that order, below 10 nM and 100 to 1000 nM.
In the case of `Cn1cc(Nc2ncc3c(n2)N(c2cccc(N=S(C)(C)=O)n2)[C@@H]2CC(C)(C)OC[C@]32C)nn1` (single isomer, unassigned) [Example 514], the IC50 against Wee1 kinase domain was below 10 nM; in assay [1] it was 100 to 1000 nM.
In the same order, the values of `CN1C[C@H]2C[C@@H]1CN2c1ccc(Nc2ncc3c(n2)N(c2cccc(C4(O)COC4)n2)[C@@H]2CC(C)(C)OC[C@]32C)cc1` (single isomer, unassigned) [Example 517] are below 10 nM and 100 to 1000 nM.
In the same order, the values of `CN1C[C@@H]2C[C@H]1CN2c1ccc(Nc2ncc3c(n2)N(c2cccc(C4(O)COC4)n2)[C@@H]2CC(C)(C)OC[C@]32C)cc1` (single isomer, unassigned) [Example 518] are below 10 nM and 100 to 1000 nM.
In the same order, the values of `CN1C[C@@H]2C[C@H]1CN2c1ccc(Nc2ncc3c(n2)N(c2ccn(C)n2)[C@@H]2CC(C)(C)OC[C@]32C)cc1` (single isomer, unassigned) [Example 519] are below 10 nM and 100 to 1000 nM.
On to `CN1C[C@H]2C[C@@H]1CN2c1ccc(Nc2ncc3c(n2)N(c2ccn(C)n2)[C@@H]2CC(C)(C)OC[C@]32C)cc1` (single isomer, unassigned) [Example 520], for which the IC50 against Wee1 kinase domain is below 10 nM; in assay [1] it was 1000 to 10000 nM.
On to `Cc1cc(Nc2ncc3c(n2)N(c2cccc([C@H]4CCCN4)n2)[C@@H]2CC(C)(C)OC[C@]32C)ccc1N1CCOCC1` (single isomer, unassigned) [Example 522], for which the IC50 against Wee1 kinase domain is below 10 nM; in assay [1] it was 100 to 1000 nM.
For `CN(C)Cc1cccc(N2c3nc(Nc4ccc(N5CCOCC5)cc4)ncc3[C@@]3(C)COC(C)(C)C[C@@H]23)n1` (single isomer, unassigned) [Example 523], the IC50 is below 10 nM against Wee1 kinase domain and 100 to 1000 nM in assay [1].
As for `CC1(C)C[C@H]2N(c3cccc([C@@H]4CCCN4)n3)c3nc(Nc4ccc(N5CCOCC5)cc4)ncc3[C@@]2(C)CO1` (single isomer, unassigned) [Example 526], the IC50 is below 10 nM against Wee1 kinase domain and 100 to 1000 nM in assay [1].
In the same order, the values of `Cc1cc(Nc2ncc3c(n2)N(c2cccc([C@@H]4CCCN4)n2)[C@@H]2CC(C)(C)OC[C@]32C)ccc1N1CCOCC1` (single isomer, unassigned) [Example 529] are below 10 nM and 100 to 1000 nM.
Take `CC1(C)C[C@H]2N(c3cccc(C4CCNCC4)n3)c3nc(Nc4ccc(N5CCOCC5)cc4)ncc3[C@@]2(C)CO1` (single isomer, unassigned) [Example 531]: the IC50 at Wee1 kinase domain is below 10 nM; in assay [1], 100 to 1000 nM.
The like results for `CN1CCC(c2cccc(N3c4nc(Nc5ccc(N6CCOCC6)cc5)ncc4[C@@]4(C)COC(C)(C)C[C@@H]34)n2)CC1` (single isomer, unassigned) [Example 533] were, in that order, below 10 nM and 100 to 1000 nM.
